# Like-named read-outs stand apart in the source and are kept apart here.
# What was measured:
# [1] = system: ANKA strain of P. berghei; assay: Single dose STI in vivo screen in infected mice; parameters: species or system Plasmodium berghei; conditions: for Survival (days) 3 mg/kg SSV po / Activity (%) 3 mg/kg SSV po: single 3 mg/kg po in SSV; for Activity (%) 3 mg/kg SSV po / Activity (%) 10 mg/kg SSV po: percent reduction in parasitemia on day 3; for Survival (days) 10 mg/kg SSV po: single 10 mg/kg po in SSV, untreated 6-7 days; for Activity (%) 10 mg/kg SSV po: single 10 mg/kg po in standard suspending vehicle (SSV) on day 1 post-infection
# P. berghei ANKA strain [2] = assay: Onset of action and recrudescence experiment, single 100 mg/kg po; format: in vivo, Plasmodium berghei; conditions: single 100 mg/kg po (SSV) on day +3 post-infection; recrudescence = >5% parasitemia; followed up to 60 days; groups of five
# Experimental: The onset of drug action was determined after a single fixed dose of 100 mg/kg (SSV vehicle) po to groups of five animals on day +3 post-infection (day 0).
# (§1) Moro NMRI male mice (Fu Albino specific pathogen free) weighing 18±2 g were infected intravenously (i.v.) with 2×10^7 P. berghei ANKA strain-infected erythrocytes from donor mice on day 0 of the experiment. From donor mice with circa 30% parasitemia, heparinized blood was taken and diluted in physiological saline to 10^8 parasitized erythrocytes per ml. An aliquot (0.2 ml) of this suspension was injected i.v. into experimental and control groups of mice. […] Throughout the experiments, mice were kept in groups of three or five animals in Makrolon type II cages in an air-conditioned animal room at 22 to 23° C.
# [3] = system: ANKA strain of Plasmodium berghei; assay: Single dose ED50/ED90/ED99 determination in infected mice; format: in vivo
# Summary of the method: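 Moro SPF or NMRI mice (three per group) infected with P. berghei ANKA were dosed once on day 1 post-infection in SSV (0.5% CMC, 0.5% benzyl alcohol, 0.4% Tween 80, 0.9% NaCl). Parasitemia reduction was scored on day 3; ED values (mg/kg) came from nonlinear fitting.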
# [4] = Pharmacokinetics in rats (IV and oral dosing); conditions: in vivo, po, 25 mg/kg
# Excerpt: Artesunate is listed as a reference compound.
# P. berghei ANKA strain [5] = assay: Divided 3x10 mg/kg vs single 1x30 mg/kg po dose in infected mice; format: in vivo, Plasmodium berghei; conditions: for Cures 3 × 10 mg/kg p.o. SSV: 10 mg/kg po on days 1, 2, 3; for Cures 3 × 10 mg/kg p.o. SSV / Cures 1 × 30 mg/kg p.o. SSV: cure = survival to day 30 post-infection; for Survival (days) 3 × 10 mg/kg p.o. SSV / Activity (%) 3 × 10 mg/kg p.o. SSV: 10 mg/kg po on days 1, 2, 3 post-infection; for Activity (%) 3 × 10 mg/kg p.o. SSV / Activity (%) 1 × 30 mg/kg p.o. SSV: parasitemia reduction on day 4; for Survival (days) 1 × 30 mg/kg p.o. SSV / Activity (%) 1 × 30 mg/kg p.o. SSV: single 30 mg/kg po on day 1 post-infection; for Cures 1 × 30 mg/kg p.o. SSV: single 30 mg/kg po
# Experimental: as §1
# (§2) They were administered per os (p.o.) in a total volume of 0.01 ml per gram of mouse. The activity of the compound was determined by a variety of methods outlined in subsequent sections. Survival time was also recorded, and survival to day 30 post-infection was considered to be a cure.
# The first experiment conducted consisted of administration of a divided 3×10 mg/kg p.o. dose administered on days 1, 2, and 3 post-infection vs. a single 1×30 mg/kg po dose administered on day 1 post-infection. On day 4 post-infection, blood smears of all animals were prepared and stained with Giemsa. […] Compounds were administered orally in the SSV vehicle.
# P. berghei ANKA strain [6] = assay: Divided 3x3 mg/kg and 3x1 mg/kg po doses in infected mice; format: in vivo, Plasmodium berghei
# Experimental: as §1, §2
# The second experiment consists of administration of divided 3×3 mg/kg and 3×1 mg/kg po doses administered on days 1, 2, and 3 post-infection. On day 4 post-infection, blood smears of all animals were prepared and stained with Giemsa. […] Compounds were administered orally in the SSV vehicle.
# P. berghei ANKA strain [7] = assay: Prophylactic activity, single 100 mg/kg po at various times before infection; format: in vivo, Plasmodium berghei; conditions: for Prophylactic Activity (%) 24 h: single 100 mg/kg po 24 h before infection; for Prophylactic Activity (%) 0 h: single 100 mg/kg po at 0 h
# Experimental: as §1
# Prophylactic activities of the compounds were compared after administering po single dose of 100 mg/kg to different groups of five animals at various times before infection. All groups including an untreated control group, were then infected at the same time. Parasitemia was determined for each animal on day 3 post-infection, and percent of reduction of the level of parasitemia compared to levels for animals given no drug is determined.
# [8] = system: chloroquine-resistant K1 strain of P. falciparum; assay: In vitro antimalarial semiautomated microdilution assay ([3H]-hypoxanthine incorporation), K1 strain; format: cell-based, Plasmodium falciparum; conditions: Plasmodium falciparum, read-out: IC50 (ng/ml) K1
# Summary of the method: (§3)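 IC50 values come from Logit regression of [3H]-hypoxanthine uptake data. Parasites were intraerythrocytic P. falciparum forms taken from asynchronous stock cultures and tested by semiautomated microdilution.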
# [9] = system: chloroquine-sensitive NF54 strain of P. falciparum; assay: In vitro antimalarial semiautomated microdilution assay ([3H]-hypoxanthine incorporation), NF54 strain; format: cell-based, Plasmodium falciparum; conditions: Plasmodium falciparum, read-out: IC50 (ng/ml) NF54
# Summary of the method: as §3
# Schistosoma japonicum = assay: Effect in mice infected with Schistosoma japonicum; format: in vivo; conditions: age of worm 35 days, 400 mg/kg x 1
# [10] = system: Schistosoma mansoni 21-day-old schistosomules; assay: Effect on 21-day-old schistosomules in infected mice; format: in vivo; conditions: po, 200 mg/kg, 504 h
# Experimental: Mice were infected with 100 Schistosoma mansoni cercariae on day 21 post-treatment. Each group was treated per os with trioxolanes at a single dose of 200 mg/kg. […] All groups were killed 4 weeks after treatment and the liver and intestine were removed and separated. The liver and intestine were compressed and alive male and female worms could be seen and counted. The effect of the compounds was evaluated by mean total and female worm burden.
# [11] = system: Schistosoma mansoni adult worms (49-day-old); assay: Effect on adult schistosomes (49-day-old) in infected mice; format: in vivo; conditions: po, 400 mg/kg, 1176 h
# Experimental: Mice were infected with 100 Schistosoma mansoni cercariae on day 49 post-treatment. Each group was treated per os with OZ compounds at single doses of 200, 400, and 600 mg/kg. Untreated mice served as the control. All groups were killed 4 weeks after treatment and the liver and intestine were removed and separated. The liver and intestine were compressed and alive male and female worms could be seen and counted.
# [12] = single dose po in SSV on day 1 post-infection, parasitemia day 3, nonlinear fitting
# [13] = 3 × 1 mg/kg p.o. SSV on days 1, 2, 3 post-infection
# [14] = 3 × 1 mg/kg p.o. SSV on days 1, 2, 3 post-infection, percent reduction of parasitemia vs control on day 4
# [15] = 3 × 3 mg/kg p.o. SSV on days 1, 2, 3 post-infection
# [16] = 3 × 3 mg/kg p.o. SSV on days 1, 2, 3 post-infection, percent reduction of parasitemia vs control on day 4
# [17] = parasitemia reduction on day 3 post-infection
smiles,measurement,setting,value
"C[C@H]1[C@H](OC(=O)CCC(=O)O)O[C@@H]2O[C@@]3(C)CC[C@H]4[C@H](C)CC[C@@H]1[C@@]24OO3 [AS, artesunate, reference compound]",Survival (days) 3 mg/kg SSV po,[1],8.0 days
same,Activity (%) 3 mg/kg SSV po,[1],66%
same,Survival (days) 10 mg/kg SSV po,[1],7.0 days
same,Activity (%) 10 mg/kg SSV po,[1],87%
same,Time of Recrudescence,P. berghei ANKA strain [2],8.6 days
same,ED50,[3]; [12],4.7 mg/kg
same,ED90,[3]; [12],19 mg/kg
same,ED99,[3]; [12],60 mg/kg
same,Rat Oral Bioavailability 25 mg/kg (DHA),[4],21%
same,Cures 3 × 10 mg/kg p.o. SSV,P. berghei ANKA strain [5],0/5
same,Survival (days) 3 × 10 mg/kg p.o. SSV,P. berghei ANKA strain [5],11 days
same,Activity (%) 3 × 10 mg/kg p.o. SSV,P. berghei ANKA strain [5],98.62%
same,Survival (days) 1 × 30 mg/kg p.o. SSV,P. berghei ANKA strain [5],9 days
same,Activity (%) 1 × 30 mg/kg p.o. SSV,P. berghei ANKA strain [5],83.83%
same,Cures 1 × 30 mg/kg p.o. SSV,P. berghei ANKA strain [5],0/5
same,Survival,P. berghei ANKA strain [6]; [13],6.8 days
same,Activity (%),P. berghei ANKA strain [6]; [14],39%
same,Survival,P. berghei ANKA strain [6]; [15],9.4 days
same,Activity (%),P. berghei ANKA strain [6]; [16],78%
same,Prophylactic Activity (%) 24 h,P. berghei ANKA strain [7]; [17],6.28%
same,Prophylactic Activity (%) 0 h,P. berghei ANKA strain [7]; [17],92.44%
"OC(c1cc(C(F)(F)F)nc2c(C(F)(F)F)cccc12)C1CCCCN1 (stereo not shown) [MFQ, mefloquine, reference compound]",Activity (%) 3 mg/kg SSV po,[1],9%
same,Survival (days) 10 mg/kg SSV po,[1],17 days
same,Activity (%) 10 mg/kg SSV po,[1],99.11%
same,Time of Recrudescence,P. berghei ANKA strain [2],28.0 days
same,ED50,[3]; [12],4.0 mg/kg
same,ED90,[3]; [12],5.4 mg/kg
same,ED99,[3]; [12],6.8 mg/kg
same,Cures 3 × 10 mg/kg p.o. SSV,P. berghei ANKA strain [5],0/5
same,Survival (days) 3 × 10 mg/kg p.o. SSV,P. berghei ANKA strain [5],23.3 days
same,Activity (%) 3 × 10 mg/kg p.o. SSV,P. berghei ANKA strain [5],99.92%
same,Survival (days) 1 × 30 mg/kg p.o. SSV,P. berghei ANKA strain [5],20.3 days
same,Activity (%) 1 × 30 mg/kg p.o. SSV,P. berghei ANKA strain [5],99.94%
same,Cures 1 × 30 mg/kg p.o. SSV,P. berghei ANKA strain [5],0/5
same,Survival,P. berghei ANKA strain [6]; [13],6.2 days
same,Activity (%),P. berghei ANKA strain [6]; [14],2%
same,Survival,P. berghei ANKA strain [6]; [15],12 days
same,Activity (%),P. berghei ANKA strain [6]; [16],98%
same,Duration of prophylactic protection,P. berghei ANKA strain [7]; single 100 mg/kg po,3 days
same,Prophylactic Activity (%) 24 h,P. berghei ANKA strain [7]; [17],100%
same,Prophylactic Activity (%) 48 h,"P. berghei ANKA strain [7]; single 100 mg/kg po 48 h before infection, parasitemia reduction on day 3 post-infection",99.92%
same,Prophylactic Activity (%) 72 h,"P. berghei ANKA strain [7]; single 100 mg/kg po 72 h before infection, parasitemia reduction on day 3 post-infection",99.97%
same,Prophylactic Activity (%) 0 h,P. berghei ANKA strain [7]; [17],100%
"CCN(CC)CCCC(C)Nc1ccnc2cc(Cl)ccc12 (stereo not shown) [CQ, chloroquine, reference compound]",IC50,"[8]; K1, 72 h",76 ng/mL
same,IC50,"[9]; NF54, 72 h",4.4 ng/mL
same,Survival (days) 3 mg/kg SSV po,[1],8.0 days
same,Survival (days) 10 mg/kg SSV po,[1],9.0 days
same,Time of Recrudescence,P. berghei ANKA strain [2],17.8 days
same,ED99,[3]; [12],5.9 mg/kg
same,Cures 3 × 10 mg/kg p.o. SSV,P. berghei ANKA strain [5],0/5
same,Survival (days) 3 × 10 mg/kg p.o. SSV,P. berghei ANKA strain [5],14.3 days
same,Survival (days) 1 × 30 mg/kg p.o. SSV,P. berghei ANKA strain [5],9.5 days
same,Cures 1 × 30 mg/kg p.o. SSV,P. berghei ANKA strain [5],0/5
same,Survival,P. berghei ANKA strain [6]; [13],7.2 days
same,Survival,P. berghei ANKA strain [6]; [15],10 days
"CO[C@H]1O[C@@H]2O[C@@]3(C)CC[C@H]4[C@H](C)CC[C@@H]([C@H]1C)[C@@]24OO3 [AM, artemether, reference compound]",IC50,"[8]; chloroquine-resistant K1 strain, 72 h incubation",0.45 ng/mL
same,IC50,"[9]; chloroquine-sensitive NF54 strain, 72 h incubation",0.36 ng/mL
same,Survival (days) 3 mg/kg SSV po,[1],8.7 days
same,Activity (%) 3 mg/kg SSV po,[1],79%
same,Survival (days) 10 mg/kg SSV po,[1],9.4 days
same,Activity (%) 10 mg/kg SSV po,[1],99.75%
same,Time of Recrudescence,P. berghei ANKA strain [2],12.0 days
same,Mice without female worm,Schistosoma japonicum,0/7
same,MFWB (mean female worm burden) x ± SD,Schistosoma japonicum; control 11.6 ± 2.4,3.4 ± 1.6
same,MTWB (mean total worm burden) x ± SD,Schistosoma japonicum; control 26.6 ± 4.2,10.1 ± 4.4
same,"% reduction of schistosomule growth at day 21 after per os application of 200 mg/kg, FWR (%)",[10],(n2) 78%
same,"% reduction of schistosomule growth at day 21 after per os application of 200 mg/kg, TWR (%)",[10],(n2) 81%
same,"% reduction of adult worms growth at day 49 after per os application of 400 mg/kg, TWR (%)",[11],53%
same,"Adult worms day 49, per os 400 mg/kg, DEAD WORM (%)",[11],29%
same,ED50,"[3]; Plasmodium berghei, single dose po in SSV on day 1 post-infection, parasitemia day 3, nonlinear fitting, read-out: ED50",2.2 mg/kg
same,ED90,[3]; po,4.2 mg/kg
same,ED99,[3]; [12],7.1 mg/kg
same,Survival,P. berghei ANKA strain [6]; [13],7.2 days
same,Survival,P. berghei ANKA strain [6]; [15],9.4 days
same,Activity (%),P. berghei ANKA strain [6]; [16],86%
same,Activity (%),"P. berghei ANKA strain [6]; po, 1 mg/kg, 96 h",51%
same,Cures,"P. berghei ANKA strain [6]; po, 3 mg/kg, 720 h",0\5
same,Prophylactic Activity (%) 24 h,P. berghei ANKA strain [7]; [17],0%
same,Prophylactic Activity (%) 0 h,P. berghei ANKA strain [7]; [17],100%

# Source: patent US6825230B2, “Spiro and dispiro 1,2,4-trixolane antimalarials” (Medicines for Malaria Venture MMV, priority 2002, dated 2004)
